Laboratory results as given in patent US9493426B2, “Quinazolinone derivatives useful as FGFR kinase modulators” (priority 2013, dated 2016).

Target: T1, FGFR1 (Homo sapiens, UniProt P11362)
T1 construct: purchased DiscoveRx Corporation
Assay: Enzyme binding assay (KINOMEscan) FGFR1
Details: FGFR1_pKd, pKd = -log Kd (M)
Protocol: (§1) Enzyme Binding Assays (KINOMEscan®)
(§2) Kinase enzyme binding affinities of compounds disclosed herein were determined using the KINOMEscan® technology performed by DiscoveRx Corporation, San Diego, Calif., USA (www.kinomescan.com).

T1 sequence (P11362 22-822): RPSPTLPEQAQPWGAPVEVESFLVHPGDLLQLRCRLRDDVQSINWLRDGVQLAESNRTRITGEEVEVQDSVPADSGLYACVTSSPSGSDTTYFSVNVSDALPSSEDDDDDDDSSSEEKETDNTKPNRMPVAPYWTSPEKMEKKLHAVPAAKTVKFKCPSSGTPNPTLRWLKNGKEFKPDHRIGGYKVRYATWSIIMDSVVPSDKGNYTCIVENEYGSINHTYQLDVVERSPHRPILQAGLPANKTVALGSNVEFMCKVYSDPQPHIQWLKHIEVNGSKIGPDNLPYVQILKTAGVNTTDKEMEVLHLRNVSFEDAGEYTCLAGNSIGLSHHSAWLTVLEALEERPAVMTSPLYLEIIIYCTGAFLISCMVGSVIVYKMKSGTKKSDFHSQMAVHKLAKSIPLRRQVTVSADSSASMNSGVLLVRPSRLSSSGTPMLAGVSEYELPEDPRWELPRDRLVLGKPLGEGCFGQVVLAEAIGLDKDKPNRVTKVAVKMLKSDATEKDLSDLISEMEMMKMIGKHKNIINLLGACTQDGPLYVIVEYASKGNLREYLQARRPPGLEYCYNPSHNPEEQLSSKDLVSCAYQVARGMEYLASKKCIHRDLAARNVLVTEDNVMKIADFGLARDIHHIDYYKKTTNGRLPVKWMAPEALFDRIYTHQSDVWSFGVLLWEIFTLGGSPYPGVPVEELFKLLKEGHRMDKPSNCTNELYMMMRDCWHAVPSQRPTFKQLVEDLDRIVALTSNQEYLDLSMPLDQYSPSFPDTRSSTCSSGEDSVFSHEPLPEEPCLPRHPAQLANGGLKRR

Going from COc1cc(OC)c(F)c(N(Cc2nccn2S(=O)(=O)N(C)C)c2ccc3ncn(-c4cccnc4)c(=O)c3c2)c1 [Compound 36] to COc1cc(OC)c(F)c(N(Cc2nccn2S(=O)(=O)N(C)C)c2ccc3ncn(-c4ccncc4)c(=O)c3c2)c1 [Compound 41], the Kd falls from 1.58e-07 M to 1e-07 M (1.6-fold). The second binds more tightly here.

Going from COc1cc(OC)c(F)c(N(CCO)c2ccc3ncn(C4CCNCC4)c(=O)c3c2)c1F [Compound 46] to CNCCN(c1ccc2ncn(C3CCNCC3)c(=O)c2c1)c1c(F)c(OC)cc(OC)c1F [Compound 57], the Kd falls from 1e-07 M to 3.16e-08 M (3.2-fold). The second binds more tightly here.

First: COc1cc(OC)c(F)c(N(Cc2nccn2S(=O)(=O)N(C)C)c2ccc3ncn(-c4cccnc4)c(=O)c3c2)c1F [Compound 35]
Second: COc1cc(OC)c(F)c(N(CCO)c2ccc3ncn(-c4ccncc4)c(=O)c3c2)c1F [Compound 37]
The Kd of the first is 3.2-fold higher: 5.01e-08 M for the first, 1.58e-08 M for the second. The second binds more tightly here.

Going from COc1cc(OC)c(F)c(N(CCCNC(C)C)c2ccc3ncn(C4CCNCC4)c(=O)c3c2)c1 [Compound 61′] to COc1cc(OC)c(F)c(N(CCCO)c2ccc3ncn(C4CCNCC4)c(=O)c3c2)c1 [Compound 54], the Kd rises from 5.01e-08 M to 7.94e-07 M (16-fold). The first binds more tightly here.

Going from COc1cc(OC)c(F)c(N(CCO)c2ccc3ncn(-c4cncnc4)c(=O)c3c2)c1 [Compound 74] to COc1cc(OC)c(F)c(N(CCCNC(C)C)c2ccc3ncn(C4CCOCC4)c(=O)c3c2)c1 [Compound 72], the Kd falls from 7.94e-07 M to 7.94e-09 M (100-fold).

Compound COc1cc(OC)c(F)c(N(CCCNC(C)C)c2ccc3ncn(C4CCNCC4)c(=O)c3c2)c1F [Compound 60] has a Kd of 6.31e-09 M.

Target: T2, FGFR2 (Homo sapiens, UniProt P21802)
T2 construct: purchased DiscoveRx Corporation
Assay: Enzyme binding assay (KINOMEscan) FGFR2
Details: pKd = -log Kd (M), read-out: FGFR2_pKd (converted)
Protocol: as §1, §2

T2 sequence (P21802 22-821): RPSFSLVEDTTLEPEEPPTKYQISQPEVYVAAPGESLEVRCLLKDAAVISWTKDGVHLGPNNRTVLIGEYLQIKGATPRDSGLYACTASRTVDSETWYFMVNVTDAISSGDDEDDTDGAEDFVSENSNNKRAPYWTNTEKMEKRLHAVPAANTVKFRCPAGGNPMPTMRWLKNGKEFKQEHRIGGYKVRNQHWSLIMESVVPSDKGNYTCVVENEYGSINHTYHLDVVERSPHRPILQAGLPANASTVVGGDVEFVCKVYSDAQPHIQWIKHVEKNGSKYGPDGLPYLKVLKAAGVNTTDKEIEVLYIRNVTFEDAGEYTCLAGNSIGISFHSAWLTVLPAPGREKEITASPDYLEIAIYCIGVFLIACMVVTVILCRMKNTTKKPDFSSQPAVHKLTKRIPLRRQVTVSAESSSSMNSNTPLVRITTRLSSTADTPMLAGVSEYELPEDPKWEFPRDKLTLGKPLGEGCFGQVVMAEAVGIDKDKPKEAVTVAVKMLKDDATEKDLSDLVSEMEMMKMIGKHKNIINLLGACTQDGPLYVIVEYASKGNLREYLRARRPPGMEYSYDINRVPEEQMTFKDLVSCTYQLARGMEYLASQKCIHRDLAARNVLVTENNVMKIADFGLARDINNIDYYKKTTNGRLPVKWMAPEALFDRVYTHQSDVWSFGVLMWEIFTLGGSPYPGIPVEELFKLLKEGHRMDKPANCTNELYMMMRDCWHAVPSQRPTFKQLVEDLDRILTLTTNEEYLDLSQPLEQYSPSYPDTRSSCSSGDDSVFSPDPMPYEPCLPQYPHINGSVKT

Compared with COc1cc(OC)c(F)c(N(Cc2nccn2S(=O)(=O)N(C)C)c2ccc3ncn(-c4cccnc4)c(=O)c3c2)c1 [Compound 36], COc1cc(OC)c(F)c(N(Cc2nccn2S(=O)(=O)N(C)C)c2ccc3ncn(-c4ccncc4)c(=O)c3c2)c1 [Compound 41] is 3.2-fold lower in Kd: 1e-07 M for the first, 3.16e-08 M for the second.

COc1cc(OC)c(F)c(N(CCO)c2ccc3ncn(C4CCNCC4)c(=O)c3c2)c1F [Compound 46] and CNCCN(c1ccc2ncn(C3CCNCC3)c(=O)c2c1)c1c(F)c(OC)cc(OC)c1F [Compound 57] are the same in Kd: 3.98e-08 M for the first, 3.98e-08 M for the second.

Compared with COc1cc(OC)c(F)c(N(Cc2nccn2S(=O)(=O)N(C)C)c2ccc3ncn(-c4cccnc4)c(=O)c3c2)c1F [Compound 35], COc1cc(OC)c(F)c(N(CCO)c2ccc3ncn(-c4ccncc4)c(=O)c3c2)c1F [Compound 37] is 6.3-fold lower in Kd: 1.58e-08 M for the first, 2.51e-09 M for the second.

Going from COc1cc(OC)c(F)c(N(CCCNC(C)C)c2ccc3ncn(C4CCNCC4)c(=O)c3c2)c1 [Compound 61′] to COc1cc(OC)c(F)c(N(CCCO)c2ccc3ncn(C4CCNCC4)c(=O)c3c2)c1 [Compound 54], the Kd rises from 2e-08 M to 3.16e-07 M (16-fold).

Compared with COc1cc(OC)c(F)c(N(CCO)c2ccc3ncn(-c4cncnc4)c(=O)c3c2)c1 [Compound 74], COc1cc(OC)cc(N(CCO)c2ccc3ncn(-c4cccnc4)c(=O)c3c2)c1 [Compound 31] is 4-fold higher in Kd: 1.26e-07 M for the first, 5.01e-07 M for the second.

First: COc1cc(OC)c(F)c(N(CCCNC(C)C)c2ccc3ncn(C4CCNCC4)c(=O)c3c2)c1F [Compound 60]
Second: COc1cc(OC)c(F)c(N(CCCNC(C)C)c2ccc3ncn(C4CCOCC4)c(=O)c3c2)c1 [Compound 72]
The Kd of the first is 2-fold lower: 5.01e-09 M for the first, 1e-08 M for the second.

Work on CNCCN(c1cc(OC)cc(OC)c1)c1ccc2ncn(C3CCNCC3)c(=O)c2c1 [Compound 59] yielded a Kd greater than 3.16e-06 M.

Target: T3, FGFR3 (Homo sapiens, UniProt P22607)
T3 construct: purchased DiscoveRx Corporation
Assay: Enzyme binding assay (KINOMEscan) FGFR3
Details: pKd = -log Kd (M), read-out: FGFR3_pKd (converted)
Protocol: as §1, §2

T3 sequence (P22607 23-806): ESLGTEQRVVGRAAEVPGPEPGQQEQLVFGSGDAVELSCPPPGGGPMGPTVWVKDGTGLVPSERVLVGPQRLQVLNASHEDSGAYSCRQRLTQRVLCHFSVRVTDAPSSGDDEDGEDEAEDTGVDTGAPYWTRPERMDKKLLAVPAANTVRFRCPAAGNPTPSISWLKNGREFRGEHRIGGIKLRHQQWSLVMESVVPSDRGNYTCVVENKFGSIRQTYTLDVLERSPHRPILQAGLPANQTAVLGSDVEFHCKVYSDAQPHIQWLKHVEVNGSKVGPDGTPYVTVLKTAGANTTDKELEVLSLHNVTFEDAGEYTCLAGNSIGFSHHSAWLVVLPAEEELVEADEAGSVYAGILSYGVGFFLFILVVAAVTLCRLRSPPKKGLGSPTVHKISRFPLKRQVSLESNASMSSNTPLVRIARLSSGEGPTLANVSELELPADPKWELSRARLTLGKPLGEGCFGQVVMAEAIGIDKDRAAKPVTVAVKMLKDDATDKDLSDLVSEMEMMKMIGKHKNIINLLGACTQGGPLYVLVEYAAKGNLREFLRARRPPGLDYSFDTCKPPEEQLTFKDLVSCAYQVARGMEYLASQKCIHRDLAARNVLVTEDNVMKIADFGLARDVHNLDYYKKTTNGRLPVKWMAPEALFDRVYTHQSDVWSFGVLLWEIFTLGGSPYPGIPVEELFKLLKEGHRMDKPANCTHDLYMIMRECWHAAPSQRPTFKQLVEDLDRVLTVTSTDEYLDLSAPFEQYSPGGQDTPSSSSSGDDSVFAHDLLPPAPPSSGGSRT

Going from COc1cc(OC)c(F)c(N(Cc2nccn2S(=O)(=O)N(C)C)c2ccc3ncn(-c4cccnc4)c(=O)c3c2)c1 [Compound 36] to COc1cc(OC)c(F)c(N(Cc2nccn2S(=O)(=O)N(C)C)c2ccc3ncn(-c4ccncc4)c(=O)c3c2)c1 [Compound 41], the Kd falls from 2.51e-07 M to 1.26e-07 M (2-fold).

Compared with COc1cc(OC)c(F)c(N(CCO)c2ccc3ncn(C4CCNCC4)c(=O)c3c2)c1F [Compound 46], CNCCN(c1ccc2ncn(C3CCNCC3)c(=O)c2c1)c1c(F)c(OC)cc(OC)c1F [Compound 57] is 1.6-fold lower in Kd: 1e-07 M for the first, 6.31e-08 M for the second.

First: COc1cc(OC)c(F)c(N(Cc2nccn2S(=O)(=O)N(C)C)c2ccc3ncn(-c4cccnc4)c(=O)c3c2)c1F [Compound 35]
Second: COc1cc(OC)c(F)c(N(CCO)c2ccc3ncn(-c4ccncc4)c(=O)c3c2)c1F [Compound 37]
The Kd of the first is 7.9-fold higher: 3.98e-08 M for the first, 5.01e-09 M for the second.

Going from COc1cc(OC)c(F)c(N(CCCNC(C)C)c2ccc3ncn(C4CCNCC4)c(=O)c3c2)c1 [Compound 61′] to COc1cc(OC)c(F)c(N(CCCO)c2ccc3ncn(C4CCNCC4)c(=O)c3c2)c1 [Compound 54], the Kd rises from 6.31e-08 M to 6.31e-07 M (10-fold).

Compared with COc1cc(OC)c(F)c(N(CCO)c2ccc3ncn(-c4cncnc4)c(=O)c3c2)c1 [Compound 74], COc1cc(OC)c(F)c(N(CCCNC(C)C)c2ccc3ncn(C4CCOCC4)c(=O)c3c2)c1 [Compound 72] is 25-fold lower in Kd: 3.98e-07 M for the first, 1.58e-08 M for the second.

Compared with COc1cc(OC)c(F)c(N(CCCNC(C)C)c2ccc3ncn(C4CCNCC4)c(=O)c3c2)c1F [Compound 60], CNCCN(c1cc(OC)cc(OC)c1)c1ccc2ncn(C3CCNCC3)c(=O)c2c1 [Compound 59] is higher in Kd: 1.26e-08 M for the first, greater than 3.16e-06 M for the second.

Target: T4, FGFR4 (Homo sapiens, UniProt P22455)
T4 construct: purchased DiscoveRx Corporation
Assay: Enzyme binding assay (KINOMEscan) FGFR4
Details: pKd = -log Kd (M), read-out: FGFR4_pKd (converted)
Protocol: as §1, §2

T4 sequence (P22455 22-802): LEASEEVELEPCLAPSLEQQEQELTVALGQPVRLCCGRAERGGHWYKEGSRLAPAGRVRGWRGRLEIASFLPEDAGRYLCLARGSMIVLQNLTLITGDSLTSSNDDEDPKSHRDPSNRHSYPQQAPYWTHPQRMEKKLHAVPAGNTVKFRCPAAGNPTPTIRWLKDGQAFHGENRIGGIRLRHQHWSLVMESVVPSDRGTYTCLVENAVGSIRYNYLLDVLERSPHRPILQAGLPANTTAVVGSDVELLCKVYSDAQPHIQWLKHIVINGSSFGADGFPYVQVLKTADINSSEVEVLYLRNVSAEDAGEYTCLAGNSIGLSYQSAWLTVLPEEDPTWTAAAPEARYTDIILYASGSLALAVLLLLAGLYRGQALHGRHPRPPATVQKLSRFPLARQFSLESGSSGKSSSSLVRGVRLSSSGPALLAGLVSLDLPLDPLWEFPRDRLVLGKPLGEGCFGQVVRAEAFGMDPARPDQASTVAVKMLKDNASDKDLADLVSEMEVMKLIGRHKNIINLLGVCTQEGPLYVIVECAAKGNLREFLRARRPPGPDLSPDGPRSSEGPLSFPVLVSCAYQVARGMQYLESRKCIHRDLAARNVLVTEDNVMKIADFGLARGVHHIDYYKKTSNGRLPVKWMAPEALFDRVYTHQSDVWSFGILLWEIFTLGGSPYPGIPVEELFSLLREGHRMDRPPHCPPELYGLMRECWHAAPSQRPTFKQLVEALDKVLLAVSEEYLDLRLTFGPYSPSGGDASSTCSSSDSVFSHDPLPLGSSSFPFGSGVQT

Compared with COc1cc(OC)c(F)c(N(Cc2nccn2S(=O)(=O)N(C)C)c2ccc3ncn(-c4cccnc4)c(=O)c3c2)c1 [Compound 36], COc1cc(OC)c(F)c(N(Cc2nccn2S(=O)(=O)N(C)C)c2ccc3ncn(-c4ccncc4)c(=O)c3c2)c1 [Compound 41] is 1.6-fold lower in Kd: 1.26e-06 M for the first, 7.94e-07 M for the second.

Going from COc1cc(OC)c(F)c(N(CCO)c2ccc3ncn(C4CCNCC4)c(=O)c3c2)c1F [Compound 46] to CNCCN(c1ccc2ncn(C3CCNCC3)c(=O)c2c1)c1c(F)c(OC)cc(OC)c1F [Compound 57], the Kd falls from 7.94e-07 M to 1.58e-07 M (5-fold).

Going from COc1cc(OC)c(F)c(N(Cc2nccn2S(=O)(=O)N(C)C)c2ccc3ncn(-c4cccnc4)c(=O)c3c2)c1F [Compound 35] to COc1cc(OC)c(F)c(N(CCO)c2ccc3ncn(-c4ccncc4)c(=O)c3c2)c1F [Compound 37], the Kd falls from 1.26e-07 M to 5.01e-08 M (2.5-fold).

Going from COc1cc(OC)c(F)c(N(CCCNC(C)C)c2ccc3ncn(C4CCNCC4)c(=O)c3c2)c1 [Compound 61′] to COc1cc(OC)c(F)c(N(CCCO)c2ccc3ncn(C4CCNCC4)c(=O)c3c2)c1 [Compound 54], the Kd rises from 2e-07 M to greater than 3.16e-06 M.

Going from COc1cc(OC)c(F)c(N(CCO)c2ccc3ncn(-c4cncnc4)c(=O)c3c2)c1 [Compound 74] to COc1cc(OC)cc(N(CCO)c2ccc3ncn(-c4cccnc4)c(=O)c3c2)c1 [Compound 31], the Kd rises from 2e-06 M to greater than 3.16e-06 M.

COc1cc(OC)c(F)c(N(CCCNC(C)C)c2ccc3ncn(C4CCNCC4)c(=O)c3c2)c1F [Compound 60] and COc1cc(OC)c(F)c(N(CCCNC(C)C)c2ccc3ncn(C4CCOCC4)c(=O)c3c2)c1 [Compound 72] are within 1.5-fold of each other in Kd: 3.98e-08 M for the first, 5.01e-08 M for the second.

Compound CNCCN(c1cc(OC)cc(OC)c1)c1ccc2ncn(C3CCNCC3)c(=O)c2c1 [Compound 59] has a Kd greater than 3.16e-06 M.

Target: T5, VEGFR2 (Homo sapiens, UniProt P35968)
T5 construct: purchased DiscoveRx Corporation
Assay: Enzyme binding assay (KINOMEscan) VEGFR2
Details: pKd = -log Kd (M), read-out: VEGFR2_pKd (converted)
Protocol: as §1, §2

T5 sequence (P35968 20-1356): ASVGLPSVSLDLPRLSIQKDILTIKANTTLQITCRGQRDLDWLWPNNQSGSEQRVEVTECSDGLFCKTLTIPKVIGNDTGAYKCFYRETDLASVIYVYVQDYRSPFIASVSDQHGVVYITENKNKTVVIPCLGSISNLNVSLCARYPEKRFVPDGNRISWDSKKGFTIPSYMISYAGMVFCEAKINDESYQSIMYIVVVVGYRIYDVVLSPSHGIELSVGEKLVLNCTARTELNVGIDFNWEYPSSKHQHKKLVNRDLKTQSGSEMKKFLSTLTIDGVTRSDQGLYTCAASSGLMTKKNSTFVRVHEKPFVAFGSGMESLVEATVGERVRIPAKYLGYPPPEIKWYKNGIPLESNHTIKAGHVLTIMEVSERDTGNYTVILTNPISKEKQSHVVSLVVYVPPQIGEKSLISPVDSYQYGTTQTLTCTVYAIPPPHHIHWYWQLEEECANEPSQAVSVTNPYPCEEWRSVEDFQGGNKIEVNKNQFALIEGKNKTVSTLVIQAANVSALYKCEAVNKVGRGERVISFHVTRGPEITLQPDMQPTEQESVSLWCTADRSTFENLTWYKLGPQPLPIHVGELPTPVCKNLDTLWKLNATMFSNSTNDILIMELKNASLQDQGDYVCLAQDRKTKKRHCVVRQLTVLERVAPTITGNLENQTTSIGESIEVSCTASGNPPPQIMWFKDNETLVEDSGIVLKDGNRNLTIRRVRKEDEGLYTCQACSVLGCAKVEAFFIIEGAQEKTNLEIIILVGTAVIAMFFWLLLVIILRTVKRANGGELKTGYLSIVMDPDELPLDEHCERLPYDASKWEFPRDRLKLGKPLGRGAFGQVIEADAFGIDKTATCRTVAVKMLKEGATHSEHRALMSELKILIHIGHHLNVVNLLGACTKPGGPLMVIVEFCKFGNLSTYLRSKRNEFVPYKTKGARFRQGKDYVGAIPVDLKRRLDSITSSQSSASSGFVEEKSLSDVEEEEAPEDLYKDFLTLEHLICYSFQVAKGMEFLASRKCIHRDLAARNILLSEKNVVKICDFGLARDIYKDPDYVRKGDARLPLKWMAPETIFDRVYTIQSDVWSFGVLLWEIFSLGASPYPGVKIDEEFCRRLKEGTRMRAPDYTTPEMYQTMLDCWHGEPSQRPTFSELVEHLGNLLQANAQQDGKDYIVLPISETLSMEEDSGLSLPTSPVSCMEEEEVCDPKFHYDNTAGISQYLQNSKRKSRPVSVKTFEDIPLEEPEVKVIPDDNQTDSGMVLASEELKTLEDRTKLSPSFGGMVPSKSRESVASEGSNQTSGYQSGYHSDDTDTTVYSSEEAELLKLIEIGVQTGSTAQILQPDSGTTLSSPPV

COc1cc(OC)c(F)c(N(Cc2nccn2S(=O)(=O)N(C)C)c2ccc3ncn(-c4cccnc4)c(=O)c3c2)c1 [Compound 36] and COc1cc(OC)c(F)c(N(Cc2nccn2S(=O)(=O)N(C)C)c2ccc3ncn(-c4ccncc4)c(=O)c3c2)c1 [Compound 41] cannot be ordered by Kd: greater than 3.16e-06 M for the first, greater than 3.16e-06 M for the second.

First: COc1cc(OC)c(F)c(N(CCO)c2ccc3ncn(C4CCNCC4)c(=O)c3c2)c1F [Compound 46]
Second: CNCCN(c1ccc2ncn(C3CCNCC3)c(=O)c2c1)c1c(F)c(OC)cc(OC)c1F [Compound 57]
The Kd of the first is higher: greater than 3.16e-06 M for the first, 2e-06 M for the second.

First: COc1cc(OC)c(F)c(N(Cc2nccn2S(=O)(=O)N(C)C)c2ccc3ncn(-c4cccnc4)c(=O)c3c2)c1F [Compound 35]
Second: COc1cc(OC)cc(N(CCO)c2ccc3ncn(-c4cccnc4)c(=O)c3c2)c1 [Compound 31]
The Kd of the first is lower: 1.26e-06 M for the first, greater than 3.16e-06 M for the second.

COc1cc(OC)c(F)c(N(CCCNC(C)C)c2ccc3ncn(C4CCNCC4)c(=O)c3c2)c1 [Compound 61′] and COc1cc(OC)c(F)c(N(CCCO)c2ccc3ncn(C4CCNCC4)c(=O)c3c2)c1 [Compound 54] cannot be ordered by Kd: greater than 3.16e-06 M for the first, greater than 3.16e-06 M for the second.

Going from COc1cc(OC)c(F)c(N(CCO)c2ccc3ncn(-c4cncnc4)c(=O)c3c2)c1 [Compound 74] to COc1cc(OC)c(F)c(N(CCCNC(C)C)c2ccc3ncn(C4CCOCC4)c(=O)c3c2)c1 [Compound 72], the Kd falls from greater than 3.16e-06 M to 2.51e-06 M.

Work on CNCCN(c1cc(OC)cc(OC)c1)c1ccc2ncn(C3CCNCC3)c(=O)c2c1 [Compound 59] yielded a Kd greater than 3.16e-06 M.

System: not given
Assay: not given
Details: not given

Compared with COc1cc(OC)cc(N(CCCNC(C)C)c2ccc3ncn(C4CCNCC4)c(=O)c3c2)c1, CNCCN(c1cc(OC)cc(OC)c1)c1ccc2ncn(C3CCNCC3)c(=O)c2c1 [Compound 59] is lower in melting point: 255 °C for the first, 139 °C for the second.

Compared with COc1cc(OC)c(F)c(N(Cc2nccn2S(=O)(=O)N(C)C)c2ccc3ncn(-c4cccnc4)c(=O)c3c2)c1 [Compound 36], COc1cc(OC)c(F)c(N(Cc2nccn2S(=O)(=O)N(C)C)c2ccc3ncn(-c4cccnc4)c(=O)c3c2)c1F [Compound 35] is higher in melting point: 108 °C for the first, 128 °C for the second.

Going from COc1cc(OC)c(F)c(N(CCO)c2ccc3ncn(C4CCNCC4)c(=O)c3c2)c1F [Compound 46] to COc1cc(OC)c(F)c(N(CCCNC(C)C)c2ccc3ncn(C4CCNCC4)c(=O)c3c2)c1F [Compound 60], the melting point falls from 186 °C to 126 °C.

First: COc1cc(OC)c(F)c(N(CCO)c2ccc3ncn(-c4cncnc4)c(=O)c3c2)c1 [Compound 74]
Second: COc1cc(OC)cc(N(CCO)c2ccc3ncn(-c4cccnc4)c(=O)c3c2)c1 [Compound 31]
The melting point of the first is higher: 200 °C for the first, 168 °C for the second.

Going from COc1cc(OC)c(F)c(N(CCCO)c2ccc3ncn(C4CCNCC4)c(=O)c3c2)c1 [Compound 54] to COc1cc(OC)c(F)c(N(CCCNC(C)C)c2ccc3ncn(C4CCNCC4)c(=O)c3c2)c1, the melting point falls from 167 °C to 140 °C.

First: COc1cc(OC)c(F)c(N(CCO)c2ccc3ncn(-c4ccncc4)c(=O)c3c2)c1F [Compound 37]
Second: COc1cc(OC)c(F)c(N(Cc2nccn2S(=O)(=O)N(C)C)c2ccc3ncn(C4CCN(C(=O)OC(C)(C)C)CC4)c(=O)c3c2)c1F
The melting point of the first is higher: 198 °C for the first, 168 °C for the second.
